From US8946413B2 (Pfizer Inc., priority 2008, dated 2015)
Where two headings read alike, the source gives them in different places.

Molecular target: T1, CCR2 (Homo sapiens, UniProt P41597)
T1 construct: (leukophoresis pack); host or cells: human peripheral blood mononuclear cells (PBMCs) from a normal human leukophoresis pack
Test: hCCR2 (125-I hMCP-1) small molecule binding assay on human PBMCs
Details: 125I-MCP-1, human PBMCs
Description: The CCR2 antagonist activity of compounds of the invention can be reported as the inhibitor concentration required for 50% inhibition (IC50 values) of specific binding in receptor binding assays using 125I-labeled MCP-1, as ligand, and Peripheral Blood Mononuclear Cells (PBMCs) prepared from normal human whole blood via density gradient centrifugation. Specific binding is defined as the total binding (e.g., total cpm on filters) minus the non-specific binding. Non-specific binding is defined as the amount of cpm still defected in the presence of excess unlabeled competitor (e.g., MCP-1),
Human PBMCs were used to test compounds of the invention in a binding assay. For example, 200,000 to 500,000 cells were incubated with 0.1 to 0.2 nM 125I-labeled MCP-1, with or without unlabeled competitor (10 nM MCP-1) or various concentrations of compounds to be tested. 125I-labeled MCP-1, were prepared by suitable methods or purchased from commercial vendors (Perkin Elmer, Boston Mass.). The binding reactions were performed in 50 to 250 μL of a binding buffer consisting of […] pH 7.2, and 0.1% BSA (bovine serum albumin), for 30 minutes at room temperature. The binding reactions were terminated by harvesting the membranes by rapid filtration through glass fiber filters (Perkin Elmer) which was presoaked in 0.3% polyethyleneimine or Phosphate Buffered Saline (PBS). The filters were rinsed with approximately 600 μL of binding buffer containing, 0.5 M NaCl or PBS, then dried, and the amount of bound radioactivity was determined by counting on a Gamma Counter (Perkin Elmer).
More specifically, the following assay may be employed to determine IC50 values for the compounds of the present invention.
hCCR2 (125-I hMCP-1) Small Molecule Binding Assay
Normal human leukophoresis pack contents, available from Biological Specialty Corporation, Colmar, Pa., is diluted 1:1 with PBS, divided into 50 ml conical tubes (preferably less than 40 mls per tube), and underlayed with 10 mls of Ficoll-Paque PLUS (GE Healthcare 17-1440-02). The tubes are centrifuged at 2800 rpm in a clinical centrifuge at room temperature for 30 mins, with no brake. The plasma layer is suctioned, and the buffycoat layer is collected. The collected buffycoat layer is washed twice with 50 mls PBS, and centrifuged at 1400 rpm with brake. The cells are counted. The cells are then diluted to 1×10^7 cells per ml in binding buffer.
96 well plates (such as, for example, Millipore MultiScreen96 plates) are pre-wet with about 100 μl binding buffer (RPMI+0.1% BSA+20 mM HEPES), and blotted just prior to compound addition.
5 μl of 50 μM test compounds in 100% DMSO are dotted onto U-bottom polypropylene 96-well plates.
245 μl per well of Binding Buffer is added to each well for 1 μM compound concentration in 2% DMSO.
50 μl of 1 μM compound is transferred to pre-wetted Millipore plates. 50 μl per well of 1×10E7 cells per ml of freshly prepared human PBMCs are added.
The samples are pre-incubated at room temperature for 30 minutes or 1 hour.
50 μl of 450 pM 125-I-hMCP-1 (Perkin-Elmer/NEN cat#NEX332025UC) is added for a final concentration 125-I-hMCP-1 of 150 pM per well.
The final test compound concentration is 0.333 uM in 150 μl total volume with 0.67% DMSO in all wells. Controls for this assay consist of 0% inhibition and 100% inhibition with 1 uM hMCP-1 (saturating conditions). All wells are run in duplicate. Controls may be in replicates of eight.
The samples are incubated at room temperature for 30 minutes.
The buffer is suctioned through the Millipore plates. The plates are washed three times with Wash Buffer (PRMI+0.1% BSA+20 mM HEPES+ 0.4 M NaC).
The plate underdrain is removed. The plate filters are allowed to dry. The filters are then punched out into plastic tubes.
Finally, the sample is counted an a Gamma Counter.
All IC50 plates were repeated for an n=2.
The following table summarizes the IC50 values identified through the described assay.

[1] = 30 min preincubation, read-out: IC50 (nM) 30 min preinc
[2] = 1 hr preincubation, read-out: IC50 (nM) 1 hr preinc

T1 sequence (P41597 whole entry): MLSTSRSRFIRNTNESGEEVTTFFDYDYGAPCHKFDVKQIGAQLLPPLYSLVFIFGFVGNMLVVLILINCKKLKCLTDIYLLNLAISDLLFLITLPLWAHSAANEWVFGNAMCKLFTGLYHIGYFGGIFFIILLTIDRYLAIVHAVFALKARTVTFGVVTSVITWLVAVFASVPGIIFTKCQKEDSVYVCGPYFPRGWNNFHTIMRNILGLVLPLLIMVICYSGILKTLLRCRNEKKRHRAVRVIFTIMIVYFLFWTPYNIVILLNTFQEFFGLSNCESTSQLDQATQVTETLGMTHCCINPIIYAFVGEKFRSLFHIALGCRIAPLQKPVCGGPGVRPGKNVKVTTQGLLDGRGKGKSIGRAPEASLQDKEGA

Row | Compound | IC50 [1] [nM] | IC50 [2] [nM]
1 | CC[C@]1(C(=O)N2C[C@@H]3C[C@H]2CN3c2cc(C(F)(F)F)ccn2)CC[C@@H](N[C@H]2CCOC[C@H]2OC)C1 [Example 1, 1,5-anhydro-2,3-dideoxy-3-{[(1R,3S)-3-ethyl-3-({(1S,4S)-5-[4-(trifluoromethyl)pyridin-2-yl]-2,5-diazabicyclo[2.2.1]hept-2-yl}carbonyl)cyclopentyl]amino}-4-O-methyl-D-erythro-pentitol] | 2.47 | –
2 | CC[C@]1(C(=O)N2C[C@@H]3C[C@H]2CN3c2nccc(C(F)(F)F)n2)CC[C@@H](N[C@H]2CCOC[C@H]2OC)C1 [Example 2, 1,5-anhydro-2,3-dideoxy-3-{[(1R,3S)-3-ethyl-3-({(1S,4S)-5-[4-(trifluoromethyl)pyrimidin-2-yl]-2,5-diazabicyclo[2.2.1]hept-2-yl}carbonyl)cyclopentyl]amino}-4-O-methyl-D-erythro-pentitol] | 3.16 | –
3 | CC[C@]1(C(=O)N2C[C@@H]3C[C@H]2CN3c2ccnc(C(F)(F)F)c2)CC[C@@H](N[C@H]2CCOC[C@H]2OC)C1 [Example 7, 1,5-anhydro-2,3-dideoxy-3-{[(1R,3S)-3-ethyl-3-({(1S,4S)-5-[2-(trifluoromethyl)pyridin-4-yl]-2,5-diazabicyclo[2.2.1]hept-2-yl}carbonyl)cyclopentyl]amino}-4-O-methyl-D-erythro-pentitol] | 17.1 | –
4 | CC[C@]1(C(=O)N2C[C@@H]3C[C@H]2CN3c2nccc(C(F)(F)F)c2F)CC[C@@H](N[C@H]2CCOC[C@H]2OC)C1 [Example 8, 1,5-anhydro-2,3-dideoxy-3-{[(1R,3S)-3-ethyl-3-({(1S,4S)-5-[3-fluoro-4-(trifluoromethyl)pyridin-2-yl]-2,5-diazabicyclo[2.2.1]hept-2-yl}carbonyl)cyclopentyl]amino}-4-O-methyl-D-erythro-pentitol] | 10.7 | –
5 | CO[C@@H]1COCC[C@@H]1N[C@@H]1CC[C@@](C(=O)N2C[C@@H]3C[C@H]2CN3c2cc(C(F)(F)F)ccn2)(C(C)C)C1 [Example 11, 1,5-anhydro-2,3-dideoxy-3-{[(1R,3S)-3-isopropyl-3-({(1S,4S)-5-[4-(trifluoromethyl)pyridin-2-yl]-2,5-diazabicyclo[2.2.1]hept-2-yl}carbonyl)cyclopentyl]amino}-4-O-methyl-D-erythro-pentitol] | 6.72 | 2.44
6 | CO[C@@H]1COCC[C@@H]1N[C@@H]1CC[C@@](C(=O)N2C[C@@H]3C[C@H]2CN3c2nccc(C(F)(F)F)n2)(C(C)C)C1 [Example 12, 1,5-anhydro-2,3-dideoxy-3-{[(1R,3S)-3-isopropyl-3-({(1S,4S)-5-[4-(trifluoromethyl)pyrimidin-2-yl]-2,5-diazabicyclo[2.2.1]hept-2-yl}carbonyl)cyclopentyl]amino}-4-O-methyl-D-erythro-pentitol] | 11.1 | 1.7
7 | CO[C@@H]1COCC[C@@H]1N[C@@H]1CC[C@@](C(=O)N2C[C@@H]3C[C@H]2CN3c2ccnc(C(F)(F)F)n2)(C(C)C)C1 [Example 15, 1,5-anhydro-2,3-dideoxy-3-{[(1R,3S)-3-isopropyl-3-({(1S,4S)-5-[2-(trifluoromethyl)pyrimidin-4-yl]-2,5-diazabicyclo[2.2.1]hept-2-yl}carbonyl)cyclopentyl]amino}-4-O-methyl-D-erythro-pentitol] | 40 | 4.6
8 | CO[C@@H]1COCC[C@@H]1N[C@@H]1CC[C@@](C(=O)N2C[C@@H]3C[C@H]2CN3c2ccnc(C(F)(F)F)c2)(C(C)C)C1 [Example 17, 1,5-anhydro-2,3-dideoxy-3-{[(1R,3S)-3-isopropyl-3-({(1S,4S)-5-[2-(trifluoromethyl)pyridin-4-yl]-2,5-diazabicyclo[2.2.1]hept-2-yl}carbonyl)cyclopentyl]amino}-4-O-methyl-D-erythro-pentitol] | 13.7 | 5.8

Results, then the molecule that gave them:

Row | IC50 [1] [nM] | IC50 [2] [nM] | Compound
9 | 17.8 | – | CC[C@]1(C(=O)N2C[C@@H]3C[C@H]2CN3c2cc(C(F)(F)F)ncn2)CC[C@@H](N[C@H]2CCOC[C@H]2OC)C1 [Example 3, 1,5-anhydro-2,3-dideoxy-3-{[(1R,3S)-3-ethyl-3-({(1S,4S)-5-[6-(trifluoromethyl)pyrimidin-4-yl]-2,5-diazabicyclo[2.2.1]hept-2-yl}carbonyl)cyclopentyl]amino}-4-O-methyl-D-erythro-pentitol]
10 | 3.98 | – | CC[C@]1(C(=O)N2C[C@@H]3C[C@H]2CN3c2cncc(C(F)(F)F)n2)CC[C@@H](N[C@H]2CCOC[C@H]2OC)C1 [Example 4, 1,5-anhydro-2,3-dideoxy-3-{[(1R,3S)-3-ethyl-3-({(1S,4S)-5-[6-(trifluoromethyl)pyrazin-2-yl]-2,5-diazabicyclo[2.2.1]hept-2-yl}carbonyl)cyclopentyl]amino}-4-O-methyl-D-erythro-pentitol]
11 | 13.3 | – | CC[C@]1(C(=O)N2C[C@@H]3C[C@H]2CN3c2ccnc(C(F)(F)F)n2)CC[C@@H](N[C@H]2CCOC[C@H]2OC)C1 [Example 5, 1,5-anhydro-2,3-dideoxy-3-{[(1R,3S)-3-ethyl-3-({(1S,4S)-5-[2-(trifluoromethyl)pyrimidin-4-yl]-2,5-diazabicyclo[2.2.1]hept-2-yl}carbonyl)cyclopentyl]amino}-4-O-methyl-D-erythro-pentitol]
12 | 1.73 | – | CC[C@]1(C(=O)N2C[C@@H]3C[C@H]2CN3c2cccc(C(F)(F)F)n2)CC[C@@H](N[C@H]2CCOC[C@H]2OC)C1 [Example 6, 1,5-anhydro-2,3-dideoxy-3-{[(1R,3S)-3-ethyl-3-({(1S,4S)-5-[6-(trifluoromethyl)pyridin-2-yl]-2,5-diazabicyclo[2.2.1]hept-2-yl}carbonyl)cyclopentyl]amino}-4-O-methyl-D-erythro-pentitol]
13 | 30.7 | – | CO[C@@H]1COCC[C@@H]1N[C@@H]1CC[C@](C)(C(=O)N2C[C@@H]3C[C@H]2CN3c2cc(C(F)(F)F)ccn2)C1 [Example 9, 1,5-anhydro-2,3-dideoxy-3-{[(1R,3S)-3-methyl-3-({(1S,4S)-5-[4-(trifluoromethyl)pyridine-2-yl]-2,5-diazabicyclo[2.2.1]hept-2-yl}carbonyl)cyclopentyl]amino}-4-O-methyl-D-erythro-pentitol]
14 | 83.8 | – | CO[C@@H]1COCC[C@@H]1N[C@@H]1CC[C@](C)(C(=O)N2C[C@@H]3C[C@H]2CN3c2cncc(C(F)(F)F)n2)C1 [Example 10, 1,5-anhydro-2,3-dideoxy-3-{[(1R,3S)-3-methyl-3-({(1S,4S)-5-[6-(trifluoromethyl)pyrazin-2-yl]-2,5-diazabicyclo[2.2.1]hept-2-yl}carbonyl)cyclopentyl]amino}-4-O-methyl-D-erythro-pentitol]
15 | 10.4 | 2.3 | CO[C@@H]1COCC[C@@H]1N[C@@H]1CC[C@@](C(=O)N2C[C@@H]3C[C@H]2CN3c2cncc(C(F)(F)F)n2)(C(C)C)C1 [Example 14, 1,5-anhydro-2,3-dideoxy-3-{[(1R,3S)-3-isopropyl-3-({(1S,4S)-5-[6-(trifluoromethyl)pyrazin-2-yl]-2,5-diazabicyclo[2.2.1]hept-2-yl}carbonyl)cyclopentyl]amino}-4-O-methyl-D-erythro-pentitol]
16 | 9.95 | 1.1 | CO[C@@H]1COCC[C@@H]1N[C@@H]1CC[C@@](C(=O)N2C[C@@H]3C[C@H]2CN3c2cccc(C(F)(F)F)n2)(C(C)C)C1 [Example 16, 1,5-anhydro-2,3-dideoxy-3-{[(1R,3S)-3-isopropyl-3-({(1S,4S)-5-[6-(trifluoromethyl)pyridin-2-yl]-2,5-diazabicyclo[2.2.1]hept-2-yl}carbonyl)cyclopentyl]amino}-4-O-methyl-D-erythro-pentitol]
